The target of test [1] is T1, Proteasome subunit beta type-5 (Homo sapiens, UniProt P28074).
T1 sequence (P28074 whole entry): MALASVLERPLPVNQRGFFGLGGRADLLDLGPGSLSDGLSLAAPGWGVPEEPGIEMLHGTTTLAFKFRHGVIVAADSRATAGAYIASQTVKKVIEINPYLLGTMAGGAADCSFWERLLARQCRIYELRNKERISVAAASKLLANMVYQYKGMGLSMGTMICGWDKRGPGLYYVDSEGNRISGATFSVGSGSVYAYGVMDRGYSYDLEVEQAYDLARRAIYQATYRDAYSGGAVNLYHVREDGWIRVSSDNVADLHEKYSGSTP
The test is described as follows: Proteasome Activity Inhibition. As to the method:
(§1) RPMI8226 cells, which is a multiple myeloma cell line, were cultured and then separated by a centrifuge, and washed twice with phosphate buffered saline (PBS). 20 mM of a tris-HCl (pH 8.0) buffer solution was added to the washed cells, and the cells were disrupted by a homogenizer and centrifuged to obtain S26 protein from the supernatant. Suc-Leu-Leu-Val-Tyr-AMC, for a fluorogenic substrate for the chymotrypsin-like activity of the proteasome, and Z-Leu-Leu-Glu-AMC, for a fluorogenic substrate for the caspase-like activity, were purchased from Calbiochem, EMD Millipore and used. Into each well of a 96-well plate (opaque, black round bottom), 20 ul of the S26 protein (final RPMI8226 cell extract concentration: 2 ug/well), 10 ul of S26 proteasome inhibitor serially diluted from 10 uM (final DMSO concentration: 0.5%), and 20 ul of the fluorogenic substrate for the proteasome chymotrypsin-like or caspase-like activity (final concentration: 20 uM) were added and mixed and allowed to react in a 37° C. incubator for 90 minutes. The fluorescence of the fluorogenic substrate was measured by FlexStation II Fluorometer (Molecular Devices). The fluorescence inhibited by the compound diluted at each concentration was measured as the relative percentage value for the amount obtained from the treatment only with the S26 protein and the fluorogenic substrate.

The target in test [2] is T2, Proteasome subunit beta type-6 (Homo sapiens, UniProt P28072).
T2 sequence (P28072 whole entry): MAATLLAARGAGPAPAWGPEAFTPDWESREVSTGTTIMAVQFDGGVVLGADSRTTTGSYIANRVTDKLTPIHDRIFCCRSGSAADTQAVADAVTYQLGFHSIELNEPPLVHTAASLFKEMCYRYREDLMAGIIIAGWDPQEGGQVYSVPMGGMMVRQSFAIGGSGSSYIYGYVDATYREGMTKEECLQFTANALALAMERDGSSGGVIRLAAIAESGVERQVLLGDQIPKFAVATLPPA
Briefly: Proteasome Activity Inhibition. As for the experimental part: as §1

In general, IC50 refers to the midpoint of a concentration-inhibition curve. A lower IC50 goes with inhibition by little substance.

Take `CC[C@H](NC(=O)C1(Cc2ccccc2)CC(CNC(=O)c2ccccc2)=NO1)B(O)O` (stereo partly drawn) [US12570675, Example 293]: the IC50 in test [1] is below 25 nM; in test [2] it was above 500 nM.

The compound `CC(C)C[C@H](NC(=O)C1CC(CNc2ccccn2)=NO1)B(O)O` (stereo partly drawn) [US12570675, Example 60] registered an IC50 in test [1] below 250 nM.

As to `CC(C)C[C@H](NC(=O)C1(Cc2ccccc2)CC(CNC(=O)c2cn(C(C)C)c3ccccc23)=NO1)B(O)O` (stereo partly drawn) [US12570675, Example 209], the IC50 in test [1] was below 10 nM.

`COc1ccc(Cl)cc1-c1cccc(C2=NOC(Cc3ccccc3)(C(=O)N[C@@H](CC(C)C)B(O)O)C2)c1` (stereo partly drawn) [US12570675, Example 35] gave an IC50 in test [1] below 500 nM.

Turning to `CC(C)C[C@H](NC(=O)C1CC(CNC(=O)C2CCCc3ccccc32)=NO1)B(O)O` (stereo partly drawn) [US12570675, Example 80], the IC50 in test [1] was below 25 nM; in test [2], above 500 nM.

Take `CC(C)C[C@H](NC(=O)C1CC(CNC(=O)C2Cc3ccccc3C2)=NO1)B(O)O` (stereo partly drawn) [US12570675, Example 78]: the half-inhibitory concentration (IC50) in test [1] was below 50 nM.

For the origin of these results see BindingDB's records for patent US12570675 (LG Chem, 2026).
